Read-outs that look alike come from different tables or passages of the source.
Assays:
Assay in all cases: KINOMEscan competitive binding
[1] = molecular target: T1, CSNK2A1 (Homo sapiens, UniProt P68400)
T1 construct: purchased DiscoverX (KINOMEscan)
Excerpt: (§1) The kinases were expressed as fusions to T7 bacteriophage. This is a sensitive, competitive binding assay where test compounds were used to displace immobilized ATP-site binding probe ligands from kinases of interest. The amount of kinase that remained bound to the immobilized probe ligands on the solid support was quantified. Percentage inhibition data were was plotted on kinome trees using the web-based tool KinMap (http://www.kinhub.org/kinmap) ([60]).

[2] = molecular target: T2, PDGFRβ (Homo sapiens, UniProt P09619)
T2 construct: purchased DiscoverX (KINOMEscan)
T2 sequence (P09619 33-1106): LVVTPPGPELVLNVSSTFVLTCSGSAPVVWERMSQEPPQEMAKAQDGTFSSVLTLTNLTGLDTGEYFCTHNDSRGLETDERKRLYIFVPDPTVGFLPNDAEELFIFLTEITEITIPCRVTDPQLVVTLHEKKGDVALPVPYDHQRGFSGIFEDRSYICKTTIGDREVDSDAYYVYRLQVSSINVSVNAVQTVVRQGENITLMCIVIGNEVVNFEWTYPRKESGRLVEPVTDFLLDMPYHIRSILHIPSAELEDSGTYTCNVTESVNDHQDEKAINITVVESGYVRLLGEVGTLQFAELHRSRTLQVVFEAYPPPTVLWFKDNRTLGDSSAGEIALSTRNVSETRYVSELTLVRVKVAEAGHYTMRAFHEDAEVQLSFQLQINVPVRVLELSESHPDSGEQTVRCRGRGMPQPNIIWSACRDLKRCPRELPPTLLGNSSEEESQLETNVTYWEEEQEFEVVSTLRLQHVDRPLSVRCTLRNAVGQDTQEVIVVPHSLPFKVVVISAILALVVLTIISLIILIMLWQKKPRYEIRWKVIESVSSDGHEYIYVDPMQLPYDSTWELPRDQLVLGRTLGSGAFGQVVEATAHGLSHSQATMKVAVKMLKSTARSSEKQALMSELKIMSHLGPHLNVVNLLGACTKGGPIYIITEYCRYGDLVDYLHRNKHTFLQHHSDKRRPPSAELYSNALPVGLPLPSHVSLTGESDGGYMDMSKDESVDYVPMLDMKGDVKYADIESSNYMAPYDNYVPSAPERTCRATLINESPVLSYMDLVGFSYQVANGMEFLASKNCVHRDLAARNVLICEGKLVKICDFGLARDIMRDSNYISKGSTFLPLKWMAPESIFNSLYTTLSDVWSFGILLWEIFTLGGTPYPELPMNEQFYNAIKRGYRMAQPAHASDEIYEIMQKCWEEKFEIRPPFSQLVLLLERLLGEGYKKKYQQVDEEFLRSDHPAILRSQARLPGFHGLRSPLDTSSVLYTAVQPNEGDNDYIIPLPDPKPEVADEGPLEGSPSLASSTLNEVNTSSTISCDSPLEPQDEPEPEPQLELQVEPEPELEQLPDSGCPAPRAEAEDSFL
Excerpt: as §1

[3] = molecular target: T3, KDR (VEGFR2) (Homo sapiens, UniProt P35968); details: for inhibition at 10 µM: KINOMEscan, n=1, read-out: Percent inhibition, VEGFR2
T3 construct: purchased DiscoverX (KINOMEscan)
Excerpt: as §1

[4] = molecular target: T4, FLT3 (Homo sapiens, UniProt P36888)
T4 construct: purchased DiscoverX (KINOMEscan)
T4 sequence (P36888 27-993): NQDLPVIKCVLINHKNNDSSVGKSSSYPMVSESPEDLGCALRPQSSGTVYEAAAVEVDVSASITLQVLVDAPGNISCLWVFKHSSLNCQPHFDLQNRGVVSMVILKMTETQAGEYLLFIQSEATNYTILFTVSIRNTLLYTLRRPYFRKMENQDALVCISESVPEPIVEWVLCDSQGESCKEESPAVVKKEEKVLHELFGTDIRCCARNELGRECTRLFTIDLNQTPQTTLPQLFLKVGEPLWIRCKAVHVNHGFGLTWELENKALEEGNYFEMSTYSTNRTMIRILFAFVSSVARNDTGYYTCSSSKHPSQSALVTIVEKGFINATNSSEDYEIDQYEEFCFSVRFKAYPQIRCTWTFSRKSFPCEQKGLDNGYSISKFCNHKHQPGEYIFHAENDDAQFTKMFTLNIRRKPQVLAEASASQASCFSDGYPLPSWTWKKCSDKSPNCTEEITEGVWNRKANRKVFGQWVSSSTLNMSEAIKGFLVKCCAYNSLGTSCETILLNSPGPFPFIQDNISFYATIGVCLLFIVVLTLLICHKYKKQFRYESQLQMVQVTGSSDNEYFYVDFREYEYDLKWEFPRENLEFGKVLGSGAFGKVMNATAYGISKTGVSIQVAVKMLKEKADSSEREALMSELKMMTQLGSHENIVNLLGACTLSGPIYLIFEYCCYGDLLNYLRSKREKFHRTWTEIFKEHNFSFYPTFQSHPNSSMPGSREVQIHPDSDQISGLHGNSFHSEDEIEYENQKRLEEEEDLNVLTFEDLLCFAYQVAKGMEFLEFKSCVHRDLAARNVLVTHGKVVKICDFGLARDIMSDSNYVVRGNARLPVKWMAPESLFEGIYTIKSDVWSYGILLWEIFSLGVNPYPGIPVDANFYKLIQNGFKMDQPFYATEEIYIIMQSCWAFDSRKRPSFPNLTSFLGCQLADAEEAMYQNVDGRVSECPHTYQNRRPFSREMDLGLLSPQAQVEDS
Excerpt: as §1

[5] = molecular target: T5, CLK1 (Homo sapiens, UniProt P49759)
T5 construct: purchased DiscoverX (KINOMEscan)
T5 sequence (P49759 whole entry): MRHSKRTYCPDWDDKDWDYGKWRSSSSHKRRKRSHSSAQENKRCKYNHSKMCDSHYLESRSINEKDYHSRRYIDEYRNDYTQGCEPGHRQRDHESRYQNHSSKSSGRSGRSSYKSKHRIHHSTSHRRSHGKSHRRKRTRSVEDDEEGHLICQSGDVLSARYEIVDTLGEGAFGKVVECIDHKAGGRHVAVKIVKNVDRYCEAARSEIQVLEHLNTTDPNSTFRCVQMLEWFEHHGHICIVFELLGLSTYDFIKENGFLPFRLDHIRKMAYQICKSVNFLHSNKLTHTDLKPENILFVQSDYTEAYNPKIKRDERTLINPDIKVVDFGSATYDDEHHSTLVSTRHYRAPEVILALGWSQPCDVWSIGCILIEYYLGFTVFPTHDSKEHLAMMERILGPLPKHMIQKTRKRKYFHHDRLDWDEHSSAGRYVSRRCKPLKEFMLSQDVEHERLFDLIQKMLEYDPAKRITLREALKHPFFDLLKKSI
Excerpt: as §1

[6] = molecular target: T6, MERTK (Homo sapiens, UniProt Q12866)
T6 construct: purchased DiscoverX (KINOMEscan)
T6 sequence (Q12866 21-999): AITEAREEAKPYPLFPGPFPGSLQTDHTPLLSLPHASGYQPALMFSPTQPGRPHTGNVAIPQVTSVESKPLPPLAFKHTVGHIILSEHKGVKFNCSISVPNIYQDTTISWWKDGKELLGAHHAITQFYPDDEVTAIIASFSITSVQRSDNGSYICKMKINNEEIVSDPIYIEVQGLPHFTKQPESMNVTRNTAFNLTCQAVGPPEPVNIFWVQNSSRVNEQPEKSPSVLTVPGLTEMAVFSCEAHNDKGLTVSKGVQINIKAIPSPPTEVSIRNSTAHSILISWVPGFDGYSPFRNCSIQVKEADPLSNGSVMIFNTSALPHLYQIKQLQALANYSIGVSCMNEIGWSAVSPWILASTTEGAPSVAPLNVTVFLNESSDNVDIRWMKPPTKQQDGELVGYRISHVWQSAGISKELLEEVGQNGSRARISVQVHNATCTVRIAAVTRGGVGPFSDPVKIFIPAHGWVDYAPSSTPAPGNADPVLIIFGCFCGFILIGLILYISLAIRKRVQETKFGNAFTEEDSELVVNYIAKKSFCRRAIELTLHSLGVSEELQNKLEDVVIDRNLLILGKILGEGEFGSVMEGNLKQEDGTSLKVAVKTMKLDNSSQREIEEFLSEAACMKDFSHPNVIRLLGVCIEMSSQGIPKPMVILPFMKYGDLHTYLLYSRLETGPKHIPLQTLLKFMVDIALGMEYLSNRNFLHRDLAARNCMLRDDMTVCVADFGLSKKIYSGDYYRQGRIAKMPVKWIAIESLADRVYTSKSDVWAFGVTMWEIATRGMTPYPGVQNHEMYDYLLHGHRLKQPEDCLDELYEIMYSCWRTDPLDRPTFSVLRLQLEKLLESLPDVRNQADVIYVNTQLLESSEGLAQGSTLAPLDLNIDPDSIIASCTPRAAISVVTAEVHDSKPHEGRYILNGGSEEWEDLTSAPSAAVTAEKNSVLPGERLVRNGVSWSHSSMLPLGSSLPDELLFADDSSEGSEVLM
Excerpt: as §1

[7] = molecular target: T7, LYN (Homo sapiens, UniProt P07948)
T7 construct: purchased DiscoverX (KINOMEscan)
T7 sequence (P07948 whole entry): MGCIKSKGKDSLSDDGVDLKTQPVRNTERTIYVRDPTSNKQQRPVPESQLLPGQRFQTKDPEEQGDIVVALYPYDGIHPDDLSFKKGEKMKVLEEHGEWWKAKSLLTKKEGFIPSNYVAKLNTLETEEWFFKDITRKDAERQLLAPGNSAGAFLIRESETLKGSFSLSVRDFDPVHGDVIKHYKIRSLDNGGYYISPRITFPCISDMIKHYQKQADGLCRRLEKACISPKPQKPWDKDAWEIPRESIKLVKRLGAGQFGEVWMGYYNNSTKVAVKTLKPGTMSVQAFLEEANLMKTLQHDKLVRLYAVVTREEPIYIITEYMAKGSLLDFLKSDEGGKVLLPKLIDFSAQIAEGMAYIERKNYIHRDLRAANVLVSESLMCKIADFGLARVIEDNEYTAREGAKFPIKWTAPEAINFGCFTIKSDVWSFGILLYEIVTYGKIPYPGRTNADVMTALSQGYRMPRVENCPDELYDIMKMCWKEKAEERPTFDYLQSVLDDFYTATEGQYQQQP
Excerpt: as §1

[8] = molecular target: T8, FLT1 (Homo sapiens, UniProt P17948); details: for inhibition at 10 µM: n=1, kinase FLT1, read-out: Percent inhibition FLT1
T8 construct: purchased DiscoverX (KINOMEscan)
T8 sequence (P17948 27-1338): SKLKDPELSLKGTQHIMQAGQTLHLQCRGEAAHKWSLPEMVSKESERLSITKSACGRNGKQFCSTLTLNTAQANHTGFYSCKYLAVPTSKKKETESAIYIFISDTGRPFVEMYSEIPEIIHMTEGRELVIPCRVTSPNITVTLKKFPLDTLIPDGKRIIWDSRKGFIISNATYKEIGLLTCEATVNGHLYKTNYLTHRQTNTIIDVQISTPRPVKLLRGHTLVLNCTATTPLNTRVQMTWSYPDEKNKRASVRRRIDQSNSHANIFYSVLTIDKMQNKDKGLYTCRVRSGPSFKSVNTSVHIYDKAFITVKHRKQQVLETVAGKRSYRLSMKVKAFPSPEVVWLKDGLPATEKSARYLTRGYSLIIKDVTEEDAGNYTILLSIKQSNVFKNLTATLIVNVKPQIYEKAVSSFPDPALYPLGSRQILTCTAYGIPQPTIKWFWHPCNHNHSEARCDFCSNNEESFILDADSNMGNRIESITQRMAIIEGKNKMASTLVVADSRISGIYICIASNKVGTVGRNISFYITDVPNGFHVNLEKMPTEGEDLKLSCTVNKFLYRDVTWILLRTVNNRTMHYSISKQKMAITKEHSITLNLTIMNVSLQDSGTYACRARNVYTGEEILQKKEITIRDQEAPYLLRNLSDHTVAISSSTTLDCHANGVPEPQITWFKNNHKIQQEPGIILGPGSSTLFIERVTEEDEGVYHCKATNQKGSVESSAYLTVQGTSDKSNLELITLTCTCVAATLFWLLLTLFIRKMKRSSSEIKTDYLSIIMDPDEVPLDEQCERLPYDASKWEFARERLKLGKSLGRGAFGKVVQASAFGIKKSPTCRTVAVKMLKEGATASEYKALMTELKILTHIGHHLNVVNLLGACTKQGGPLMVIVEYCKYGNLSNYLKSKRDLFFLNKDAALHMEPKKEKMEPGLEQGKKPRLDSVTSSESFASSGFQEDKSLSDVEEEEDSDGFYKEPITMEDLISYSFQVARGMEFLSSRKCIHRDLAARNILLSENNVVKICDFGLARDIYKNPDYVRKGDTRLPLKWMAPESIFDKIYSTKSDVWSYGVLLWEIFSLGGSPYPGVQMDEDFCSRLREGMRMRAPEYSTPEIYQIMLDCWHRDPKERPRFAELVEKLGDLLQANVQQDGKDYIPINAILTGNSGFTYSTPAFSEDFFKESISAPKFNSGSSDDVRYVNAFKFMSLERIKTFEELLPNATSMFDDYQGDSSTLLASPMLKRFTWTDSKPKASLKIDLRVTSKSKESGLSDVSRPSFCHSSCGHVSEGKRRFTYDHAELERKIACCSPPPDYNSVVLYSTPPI
Excerpt: as §1

[9] = molecular target: T9, KIT (Homo sapiens, UniProt P10721)
T9 construct: purchased DiscoverX (KINOMEscan)
Excerpt: as §1

[10] = molecular target: T10, CSNK1D (Homo sapiens, UniProt P48730)
T10 construct: purchased DiscoverX (KINOMEscan)
T10 sequence (P48730 whole entry): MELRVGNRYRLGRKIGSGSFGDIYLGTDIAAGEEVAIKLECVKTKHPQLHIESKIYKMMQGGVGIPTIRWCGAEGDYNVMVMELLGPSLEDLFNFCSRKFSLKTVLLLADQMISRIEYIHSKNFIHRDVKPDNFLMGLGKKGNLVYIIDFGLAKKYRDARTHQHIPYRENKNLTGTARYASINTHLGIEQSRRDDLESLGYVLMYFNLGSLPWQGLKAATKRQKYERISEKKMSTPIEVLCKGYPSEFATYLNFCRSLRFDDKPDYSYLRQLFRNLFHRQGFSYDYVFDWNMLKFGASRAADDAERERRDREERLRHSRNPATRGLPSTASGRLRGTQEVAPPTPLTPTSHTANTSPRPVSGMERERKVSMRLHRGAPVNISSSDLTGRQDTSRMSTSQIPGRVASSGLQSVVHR
Excerpt: as §1

[11] = 10 µM, n=1, kinase CSNK2A1, read-out: Percent inhibition CSNK2A1
[12] = KINOMEscan, 10 µM, n=1, read-out: Percent inhibition, PDGFRB
[13] = 10 µM, n=1, kinase FLT3, read-out: Percent inhibition FLT3
[14] = 10 µM, n=1, kinase CLK1, read-out: Percent inhibition CLK1
[15] = 10 µM, n=1, kinase MERTK, read-out: Percent inhibition MERTK
[16] = 10 µM, n=1, kinase LYN, read-out: Percent inhibition LYN
[17] = 10 µM, n=1, kinase KIT, read-out: Percent inhibition KIT
[18] = 10 µM, n=1, kinase CSNK1D, read-out: Percent inhibition CSNK1D
[19] = 10 μM, n = 1, read-out: percent inhibition FLT3
[20] = 10 μM, n = 1, read-out: percent inhibition KIT

T1 sequence (P68400 whole entry): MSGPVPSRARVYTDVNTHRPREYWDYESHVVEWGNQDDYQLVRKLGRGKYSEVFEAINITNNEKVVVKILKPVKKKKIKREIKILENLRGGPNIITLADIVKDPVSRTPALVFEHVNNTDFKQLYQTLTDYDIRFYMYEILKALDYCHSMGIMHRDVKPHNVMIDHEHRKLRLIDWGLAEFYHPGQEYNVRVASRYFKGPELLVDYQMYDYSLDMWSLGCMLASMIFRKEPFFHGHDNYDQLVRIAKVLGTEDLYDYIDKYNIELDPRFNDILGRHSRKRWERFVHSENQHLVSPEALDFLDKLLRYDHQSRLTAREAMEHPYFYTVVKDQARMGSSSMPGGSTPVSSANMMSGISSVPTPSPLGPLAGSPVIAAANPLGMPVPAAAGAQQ

SMILES	inhibition at 10 µM [1, 11]	inhibition at 10 µM [2, 12]	inhibition at 10 µM [3]	inhibition at 10 µM [4, 13]	inhibition at 10 µM [5, 14]	inhibition at 10 µM [6, 15]	inhibition at 10 µM [7, 16]	inhibition at 10 µM [8]	inhibition at 10 µM [9, 17]	inhibition at 10 µM [10, 18]	inhibition at 10 µM ([1]; 10 μM, n = 1, read-out: percent inhibition CSNK2A1)	inhibition at 10 µM [4, 19]	inhibition at 10 µM ([6]; 10 μM, n = 1, read-out: percent inhibition MERTK)	inhibition at 10 µM ([2]; 10 μM, n = 1, read-out: percent inhibition PDGFRβ)	inhibition of KDR (VEGFR2), in words ([3]; kinome profiling, 10 μM)	inhibition at 10 µM ([7]; 10 μM, n = 1, read-out: percent inhibition LYN)	inhibition of FLT1, in words ([8]; kinome profiling, 10 μM)	inhibition at 10 µM [9, 20]	inhibition at 10 µM ([5]; 10 μM, n = 1, read-out: percent inhibition CLK1)	inhibition at 10 µM ([10]; 10 μM, n = 1, read-out: percent inhibition CSNK1D)
CN1CCN(c2ccc(Nc3nccc(-c4cnn5ncccc45)n3)cc2C#N)CC1 [Compound 1]	100%	100%	100%	100%	99.9%	98.7%	0%	99.9%	100%	100%										
COc1ccc(Nc2nccc(-c3cnn4ncccc34)n2)cc1 [Compound 2]	82%	100%	92.9%	99.3%	99.8%	65.9%	0%	99.5%	100%	100%										
Cc1ccc(O)cc1Nc1ccnc(Nc2cccc(C(N)=O)c2)n1 [Compound 3]	0%	100%	81.5%	89%	0%	0%	99.9%	98.3%	100%	100%										
Cc1ccc(O)cc1N(C)c1ccnc(Nc2cccc(S(N)(=O)=O)c2)n1 [Compound 4]	0%	100%	83.7%	92.3%	0%	77.6%	99.8%	99.4%	100%	100%										
Fc1cccc(COc2ccc(Nc3ncnc4c3CN(CCN3CCOCC3)CC4)cc2Cl)c1 [Compound 6]	0%	0%	0%	0%	0%	0%	0%	0%	0%	0%										
COc1cc(Nc2nccc(-c3sc(N)nc3-c3cccc(NC(=O)c4c(F)cccc4F)c3)n2)cc(OC)c1OC [Compound 7]	0%	100%	89.5%	99.8%	0%	99.6%	100%	99.2%	100%	76.3%										
C[C@@H](Oc1cc(-c2cnc3ccccn23)sc1C(N)=O)c1ccccc1Cl [Compound 8]	94.6%	0%	0%	98.6%	92.7%	87.6%	0%	70%	0%	0%										
c1ccc(COc2cccc(-c3ccnc4[nH]ccc34)c2)cc1 [Compound 9]	100%	0%	0%	91.1%	0%	94.1%	0%	0%	0%	0%	≥ 99%	≥ 90%	≥ 90%							
Clc1ccc(Nc2ncc(-c3ccccc3)s2)cc1 [Compound 10]	0%	99.9%	0%	97.1%	0%	0%	100%	0%	99%	0%		> 90%		> 99%	relatively weak inhibition	> 99%	relatively weak inhibition	> 99%		
Nc1ncc2c(-c3ccncc3)c[nH]c2n1 [Compound 11]	0%	93.2%	0%	94.5%	99.2%	0%	0%	0%	99.3%	99.9%								≥ 99%	≥ 99%	≥ 99%

— publication PMC9927415, “Tyrosine Kinase Inhibitors Display Potent Activity against Cryptosporidium parvum” (Microbiology Spectrum, 2022)
